The source made the active and inactive calls. No cut-off for these calls is given here.
Columns and labels:
[1] = molecular target: RAF proto-oncogene serine/threonine-protein kinase (Homo sapiens, UniProt P04049); assay: Inhibition of RAF1 Lys2 labeling site in human Huh-7 cells at 1 uM by KiNativ Profiling analysis relative to control; assay type: cell-based
[2] = molecular target: Phosphatidylinositol 4-kinase alpha (Homo sapiens) (UniProt P42356); assay: Inhibition of PI4KA ATP labeling site in human Huh-7 cell lysate at 1 uM by KiNativ Profiling analysis relative to control; assay type: subcellular
[3] = molecular target: Serine/threonine-protein kinase WNK2 (Homo sapiens) (UniProt Q9Y3S1); assay: Inhibition of Wnk2 ACT labeling site in human Huh-7 cell lysate at 1 uM by KiNativ Profiling analysis relative to control; assay type: subcellular
[4] = molecular target: Rho-associated protein kinase 1 (Homo sapiens) (UniProt Q13464); assay: Inhibition of ROCK1 in human Huh-7 cell lysate at 1 uM by KiNativ Profiling analysis relative to control; assay type: subcellular
[5] = molecular target: Activin receptor type-1-like (Homo sapiens) (UniProt P37023); assay: Inhibition of ACVRL1 (unknown origin) at 10 uM by Ambit Kinomescan binding assay
[6] = molecular target: Tyrosine-protein kinase Mer (Homo sapiens) (UniProt Q12866); assay: Inhibition of MERTK (unknown origin) at 10 uM by Ambit Kinomescan binding assay
[7] = molecular target: Serine/threonine-protein kinase 38-like (Homo sapiens) (UniProt Q9Y2H1); assay: Inhibition of NDR2 Lys1 labeling site harbouring DTGHIYAMKILR in human A-375 cells at 0.5 uM by KiNativ Profiling analysis relative to control; assay type: cell-based
[8] = molecular target: Peripheral plasma membrane protein CASK (Homo sapiens) (UniProt O14936); assay: Inhibition of CASK Lys1 labeling site in human A-375 cells at 0.5 uM by KiNativ Profiling analysis relative to control
[9] = molecular target: T1, Mitogen-activated protein kinase kinase kinase kinase 4 (Homo sapiens, UniProt O95819); assay: Inhibition of ZC1/HGK K1 labeling site harbouring TGQLAAIKVMDVTEDEEEEIKLEINMLKK in human Huh-7 cells at 1 uM by KiNativ Profiling analysis relative to control; assay type: cell-based
[10] = molecular target: Misshapen-like kinase 1 (Homo sapiens) (UniProt Q8N4C8); assay: Inhibition of ZC3 Lys2 labeling site in human A-375 cells at 5 uM by KiNativ Profiling analysis relative to control; assay type: cell-based
[11] = molecular target: Misshapen-like kinase 1 (Homo sapiens) (UniProt Q8N4C8); assay: Inhibition of ZC3/MINK K2 labeling site in human Huh-7 cells at 10 uM by KiNativ Profiling analysis relative to control; assay type: cell-based
[12] = molecular target: T1, Mitogen-activated protein kinase kinase kinase kinase 4; assay: Inhibition of ZC1 Lys2 labeling site in human A-375 cells at 5 uM by KiNativ Profiling analysis relative to control; assay type: cell-based
[13] = molecular target: ALK tyrosine kinase receptor (Homo sapiens) (UniProt Q9UM73); assay: Inhibition of ALK (unknown origin) at 10 uM by Ambit Kinomescan binding assay relative to control; values are per cent of control
[14] = molecular target: Cyclin-dependent kinase 1 (Homo sapiens) (UniProt P06493); assay: Inhibition of CDC2 K2 labeling site harbouring DLKPQNLLIDDKGTIK in human Huh-7 cells at 10 uM by KiNativ Profiling analysis relative to control; assay type: cell-based
[15] = molecular target: T2, Phosphatidylinositol 5-phosphate 4-kinase type-2 gamma (Homo sapiens) (UniProt Q8TBX8); assay: Inhibition of PIP4K2C ATP labeling site harbouring VKELPTLK in human A-375 cells at 5 uM by KiNativ Profiling analysis relative to control; assay type: cell-based
T2 sequence (whole entry): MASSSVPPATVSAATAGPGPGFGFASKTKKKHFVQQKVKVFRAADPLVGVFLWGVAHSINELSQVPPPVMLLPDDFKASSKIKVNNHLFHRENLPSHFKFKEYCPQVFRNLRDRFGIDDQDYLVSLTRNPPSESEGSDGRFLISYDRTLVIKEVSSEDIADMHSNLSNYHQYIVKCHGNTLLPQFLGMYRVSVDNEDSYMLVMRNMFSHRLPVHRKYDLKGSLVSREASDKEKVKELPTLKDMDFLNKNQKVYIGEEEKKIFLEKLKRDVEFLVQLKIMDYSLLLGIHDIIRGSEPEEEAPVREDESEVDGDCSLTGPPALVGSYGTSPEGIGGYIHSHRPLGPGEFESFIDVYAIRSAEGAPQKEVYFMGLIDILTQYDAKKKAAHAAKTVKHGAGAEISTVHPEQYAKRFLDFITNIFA

[16] = molecular target: Cyclin-dependent kinase 11B (Homo sapiens) (UniProt P21127); assay: Inhibition of CDC2L1 (unknown origin) at 1 uM by Ambit Kinomescan binding assay relative to control
[17] = molecular target: Cyclin-dependent kinase 8 (Homo sapiens) (UniProt P49336); assay: Inhibition of CDK8 (unknown origin) at 1 uM by Ambit Kinomescan binding assay relative to control
[18] = molecular target: Glycogen synthase kinase-3 beta (Homo sapiens) (UniProt P49841); assay: Inhibition of GSK3B Lys2 labeling site in human A-375 cells at 0.5 uM by KiNativ Profiling analysis relative to control; assay type: cell-based
[19] = molecular target: Tyrosine-protein kinase HCK (Homo sapiens) (UniProt P08631); assay: Inhibition of HCK (unknown origin) at 1 uM by Ambit Kinomescan binding assay relative to control; values are per cent of control
Chain of Tyrosine-protein kinase HCK (Homo sapiens) (P08631 2-526 limits assumed): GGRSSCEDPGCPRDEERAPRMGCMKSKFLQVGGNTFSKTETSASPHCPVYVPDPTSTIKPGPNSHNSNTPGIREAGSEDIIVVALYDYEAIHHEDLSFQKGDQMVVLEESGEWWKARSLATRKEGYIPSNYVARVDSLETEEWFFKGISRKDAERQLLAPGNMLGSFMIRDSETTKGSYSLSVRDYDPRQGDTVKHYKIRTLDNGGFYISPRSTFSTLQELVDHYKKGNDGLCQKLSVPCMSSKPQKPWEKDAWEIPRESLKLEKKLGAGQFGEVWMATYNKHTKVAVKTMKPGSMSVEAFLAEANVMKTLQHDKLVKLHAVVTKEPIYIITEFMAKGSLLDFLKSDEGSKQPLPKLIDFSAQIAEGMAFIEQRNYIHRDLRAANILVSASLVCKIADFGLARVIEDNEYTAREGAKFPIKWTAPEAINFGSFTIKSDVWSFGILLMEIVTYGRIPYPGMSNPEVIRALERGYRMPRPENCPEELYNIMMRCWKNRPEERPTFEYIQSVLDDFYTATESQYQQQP

Chain of Misshapen-like kinase 1 (Homo sapiens) (Q8N4C8 whole entry, looked up): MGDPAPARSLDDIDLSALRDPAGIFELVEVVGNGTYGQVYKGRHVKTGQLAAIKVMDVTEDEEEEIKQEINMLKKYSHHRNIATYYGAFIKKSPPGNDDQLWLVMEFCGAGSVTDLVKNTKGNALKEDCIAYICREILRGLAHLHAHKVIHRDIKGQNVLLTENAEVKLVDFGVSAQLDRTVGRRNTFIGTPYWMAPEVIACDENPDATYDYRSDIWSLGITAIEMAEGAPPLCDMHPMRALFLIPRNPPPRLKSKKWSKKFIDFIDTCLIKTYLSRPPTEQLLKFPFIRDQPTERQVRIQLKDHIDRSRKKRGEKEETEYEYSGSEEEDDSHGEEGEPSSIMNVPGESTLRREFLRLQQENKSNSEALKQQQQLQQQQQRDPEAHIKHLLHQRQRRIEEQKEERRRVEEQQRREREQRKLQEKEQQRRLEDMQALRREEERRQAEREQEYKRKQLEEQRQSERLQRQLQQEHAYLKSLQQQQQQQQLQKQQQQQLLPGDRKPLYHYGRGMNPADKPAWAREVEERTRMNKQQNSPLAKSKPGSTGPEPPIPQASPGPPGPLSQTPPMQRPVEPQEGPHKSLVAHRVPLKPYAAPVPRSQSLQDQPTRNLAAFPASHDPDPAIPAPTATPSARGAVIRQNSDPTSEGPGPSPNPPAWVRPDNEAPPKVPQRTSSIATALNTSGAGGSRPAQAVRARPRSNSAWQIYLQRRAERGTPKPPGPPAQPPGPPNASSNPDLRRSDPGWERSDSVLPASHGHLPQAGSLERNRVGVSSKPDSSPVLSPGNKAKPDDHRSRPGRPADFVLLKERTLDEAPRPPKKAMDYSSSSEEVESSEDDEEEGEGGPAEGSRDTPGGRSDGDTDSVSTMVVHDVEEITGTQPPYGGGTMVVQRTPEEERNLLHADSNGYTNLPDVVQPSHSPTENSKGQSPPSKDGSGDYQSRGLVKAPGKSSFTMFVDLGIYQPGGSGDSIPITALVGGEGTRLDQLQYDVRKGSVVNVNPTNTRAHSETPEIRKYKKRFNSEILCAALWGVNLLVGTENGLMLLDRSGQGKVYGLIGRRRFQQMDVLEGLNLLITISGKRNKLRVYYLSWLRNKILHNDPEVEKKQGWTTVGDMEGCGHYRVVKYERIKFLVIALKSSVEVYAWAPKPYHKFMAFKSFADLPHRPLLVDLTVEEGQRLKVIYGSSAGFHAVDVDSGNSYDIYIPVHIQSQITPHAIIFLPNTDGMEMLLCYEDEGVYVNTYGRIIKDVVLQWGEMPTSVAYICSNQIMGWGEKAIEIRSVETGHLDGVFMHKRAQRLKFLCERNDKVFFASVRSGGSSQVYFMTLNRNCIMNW
T1 sequence (O95819 2-1239 limits assumed): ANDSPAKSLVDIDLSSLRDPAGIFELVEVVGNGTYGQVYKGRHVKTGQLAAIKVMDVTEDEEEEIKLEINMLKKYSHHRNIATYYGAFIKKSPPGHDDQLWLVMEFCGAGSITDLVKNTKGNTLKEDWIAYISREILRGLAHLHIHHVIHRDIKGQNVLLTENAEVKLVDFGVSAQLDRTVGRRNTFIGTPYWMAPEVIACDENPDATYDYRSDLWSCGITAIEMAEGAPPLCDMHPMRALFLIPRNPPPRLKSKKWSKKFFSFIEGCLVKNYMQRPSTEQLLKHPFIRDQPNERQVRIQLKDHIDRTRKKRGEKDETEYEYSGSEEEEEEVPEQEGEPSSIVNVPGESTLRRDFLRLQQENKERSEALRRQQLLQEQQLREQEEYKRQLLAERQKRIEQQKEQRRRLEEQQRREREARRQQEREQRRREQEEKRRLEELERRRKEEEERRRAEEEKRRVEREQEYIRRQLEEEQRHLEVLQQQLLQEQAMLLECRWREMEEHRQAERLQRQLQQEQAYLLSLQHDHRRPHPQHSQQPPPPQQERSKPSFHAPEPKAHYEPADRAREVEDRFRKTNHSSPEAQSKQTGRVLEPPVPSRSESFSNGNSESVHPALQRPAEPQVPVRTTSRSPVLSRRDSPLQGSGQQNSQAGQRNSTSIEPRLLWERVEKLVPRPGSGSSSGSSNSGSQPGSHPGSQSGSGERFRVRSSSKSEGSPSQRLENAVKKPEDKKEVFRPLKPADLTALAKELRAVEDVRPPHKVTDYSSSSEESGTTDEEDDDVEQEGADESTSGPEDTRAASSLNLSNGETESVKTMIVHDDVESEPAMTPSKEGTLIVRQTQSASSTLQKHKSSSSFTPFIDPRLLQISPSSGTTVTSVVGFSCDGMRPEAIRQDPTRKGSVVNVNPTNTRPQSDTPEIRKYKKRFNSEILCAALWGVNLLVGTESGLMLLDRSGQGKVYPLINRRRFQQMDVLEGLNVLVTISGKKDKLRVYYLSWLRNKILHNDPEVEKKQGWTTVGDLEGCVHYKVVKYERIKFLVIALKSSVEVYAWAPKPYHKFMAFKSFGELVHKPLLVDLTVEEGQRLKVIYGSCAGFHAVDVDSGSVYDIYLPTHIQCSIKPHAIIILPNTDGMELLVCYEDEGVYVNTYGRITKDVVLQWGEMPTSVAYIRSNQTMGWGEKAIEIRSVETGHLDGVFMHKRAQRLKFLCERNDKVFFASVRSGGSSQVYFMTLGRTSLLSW
Chain of Cyclin-dependent kinase 11B (Homo sapiens) (P21127 whole entry): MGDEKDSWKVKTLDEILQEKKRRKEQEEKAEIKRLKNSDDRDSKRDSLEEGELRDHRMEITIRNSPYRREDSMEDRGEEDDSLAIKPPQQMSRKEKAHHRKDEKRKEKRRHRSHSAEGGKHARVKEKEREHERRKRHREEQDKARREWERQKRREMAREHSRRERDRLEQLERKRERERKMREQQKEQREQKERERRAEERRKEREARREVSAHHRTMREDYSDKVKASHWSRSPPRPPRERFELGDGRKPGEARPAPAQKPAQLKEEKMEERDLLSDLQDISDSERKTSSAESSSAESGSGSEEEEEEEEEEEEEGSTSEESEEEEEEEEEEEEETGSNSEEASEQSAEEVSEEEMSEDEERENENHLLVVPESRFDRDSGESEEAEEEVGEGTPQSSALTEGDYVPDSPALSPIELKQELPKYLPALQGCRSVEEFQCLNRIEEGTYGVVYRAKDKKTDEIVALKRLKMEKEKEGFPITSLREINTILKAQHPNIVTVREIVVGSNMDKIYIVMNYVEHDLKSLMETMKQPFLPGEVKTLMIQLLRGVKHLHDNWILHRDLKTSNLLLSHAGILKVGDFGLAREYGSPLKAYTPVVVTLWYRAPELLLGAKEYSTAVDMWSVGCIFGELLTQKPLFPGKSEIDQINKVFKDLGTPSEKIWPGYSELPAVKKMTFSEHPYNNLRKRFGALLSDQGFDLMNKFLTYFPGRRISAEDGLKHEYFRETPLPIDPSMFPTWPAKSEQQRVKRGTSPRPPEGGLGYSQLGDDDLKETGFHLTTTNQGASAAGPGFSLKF
Chain of Cyclin-dependent kinase 8 (Homo sapiens) (P49336 whole entry): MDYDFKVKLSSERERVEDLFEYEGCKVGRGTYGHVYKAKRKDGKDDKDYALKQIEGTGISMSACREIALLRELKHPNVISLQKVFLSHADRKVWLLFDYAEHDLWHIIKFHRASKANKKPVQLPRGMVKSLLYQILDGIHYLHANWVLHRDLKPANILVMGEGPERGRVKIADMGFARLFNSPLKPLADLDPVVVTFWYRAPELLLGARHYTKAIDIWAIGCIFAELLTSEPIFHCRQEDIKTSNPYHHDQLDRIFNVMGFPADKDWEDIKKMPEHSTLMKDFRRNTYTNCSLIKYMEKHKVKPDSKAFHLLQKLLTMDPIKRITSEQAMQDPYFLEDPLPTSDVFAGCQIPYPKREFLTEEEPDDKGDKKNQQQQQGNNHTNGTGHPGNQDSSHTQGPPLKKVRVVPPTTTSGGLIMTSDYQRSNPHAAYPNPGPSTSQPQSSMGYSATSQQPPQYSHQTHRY
Chain of RAF proto-oncogene serine/threonine-protein kinase (P04049 whole entry): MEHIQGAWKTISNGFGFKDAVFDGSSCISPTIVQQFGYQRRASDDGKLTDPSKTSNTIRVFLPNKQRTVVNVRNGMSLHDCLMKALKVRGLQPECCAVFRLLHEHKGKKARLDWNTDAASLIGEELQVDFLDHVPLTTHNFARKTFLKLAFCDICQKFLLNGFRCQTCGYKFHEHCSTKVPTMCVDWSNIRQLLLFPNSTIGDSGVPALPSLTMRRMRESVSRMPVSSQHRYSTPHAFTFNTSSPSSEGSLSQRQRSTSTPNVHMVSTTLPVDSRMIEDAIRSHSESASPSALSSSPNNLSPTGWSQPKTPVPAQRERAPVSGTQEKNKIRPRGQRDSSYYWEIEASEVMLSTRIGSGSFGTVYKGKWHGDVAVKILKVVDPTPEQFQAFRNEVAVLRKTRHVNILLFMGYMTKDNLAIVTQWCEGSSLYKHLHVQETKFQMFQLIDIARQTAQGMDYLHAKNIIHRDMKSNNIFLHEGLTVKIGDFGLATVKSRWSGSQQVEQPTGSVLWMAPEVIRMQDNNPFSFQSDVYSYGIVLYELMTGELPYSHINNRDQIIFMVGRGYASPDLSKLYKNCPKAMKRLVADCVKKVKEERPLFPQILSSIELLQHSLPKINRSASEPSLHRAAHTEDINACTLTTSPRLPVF

CNc1cc(Oc2cc(C(=O)Nc3cc(N4CCN(C)CC4)cc(C(F)(F)F)c3)ccc2C)ncn1
inhibition [1]: 34.1% | inhibition [2]: 2% | inhibition [3]: -6.9% | inhibition [4]: 7.6%

CCN1CCN(Cc2ccc(NC(=O)c3ccc(C)c(Oc4ccnc5[nH]ccc45)c3)cc2C(F)(F)F)CC1
inhibition [5]: inactive | inhibition [6]: inactive | inhibition [7]: 16.9% | inhibition [8]: 5.8% | inhibition [9]: 19.2% | inhibition [10]: 92.7% | inhibition [11]: 72.6% | inhibition [12]: 92.7% | percent of control [13]: 0.55% | inhibition [14]: -1.7%

CCN1CCN(Cc2ccc(NC(=O)c3ccc(C)c(/C=C/c4cnc5[nH]ccc5c4OC)c3)cc2C(F)(F)F)CC1
inhibition [15]: -6% | inhibition [16]: 61% | inhibition [17]: 25% | inhibition [18]: 34.9% | residual activity [19]: 0.5%
